The text below walks through data of US20060057154A1, “Compositions for inducing of immunotolerance” (Universiteit Utrecht Holding B.V., priority 2003, published 2006).

In experiment [1] the test system is OVA-sensitized BALB/c mice. The experiment can be described thus: Cellular composition of bronchoalveolar lavage fluid (eosinophil number) in mouse model of allergic asthma. The experiment is classed as in vivo, mouse (BALB/c). The procedure: (§1) Animals. Animal care and use were performed in accordance with the guidelines of the Dutch Committee of Animal Experiments. Specific pathogen-free male BALB/c mice (5 to 6 weeks old) were purchased from Charles River (Maastricht, The Netherlands) and housed in macrolon cages in a laminar flow cabinet and provided with food and water ad libitum.
(§2) Sensitization, treatment and challenge. Mice (6 to 8 weeks old) were sensitized intraperitoneally (i.p.) on days 0 and 7 with 10 μg ovalbumin (OVA, grade V, Sigma-Aldrich) in 0.1 ml alum (Pierce, Rockford, Ill.). Two weeks after the last sensitization, the mice were divided into six groups. The sham-immunotherapy and the OVA-immunotherapy groups were treated with three s.c. injections of, respectively, 0.2 ml pyrogen-free saline (B. Braun, Melsungen, Germany) or 1 mg OVA in 0.2 ml pyrogen-free saline on alternate days. In three groups, OVA-immunotherapy was co-injected with 0.1 μg, 0.03 μg or 0.01 μg 1α,25-dihydroxyvitamin D3 (1α,25(OH)2 VitD3), a selective inhibitor of NF-κb. One group was treated with sham-immunotherapy and combined with co-injection of 0.1 μg 1α,25(OH)2 VitD3. Ten days after treatment, mice were exposed to three OVA inhalation challenges (10 mg/ml in saline) for 20 minutes every third day.
In a second series of experiments, OVA-immunotherapy, as described above, was carried out using a sub-optimal amount of 100 μg OVA in saline for OVA-immunotherapy. OVA-immunotherapy was either given alone or in combination with 0.01 μg 1α,25(OH)2 VitD3. Sham-immunotherapy alone or in combination with 0.01 μg 1α,25(OH)2 VitD3 served as control groups.
Analysis of the cellular composition of the bronchoalveolar lavage fluid. Bronchoalveolar lavage (BAL) was performed immediately after bleeding of the mice by lavage of the airways through a tracheal cannule five times with 1 ml saline (37° C.). Cells in the BALF were centrifuged and resuspended in cold PBS. The total number of cells in the BAL was determined using a Bürker-Türk counting chamber (Karl Hecht Assistant KG, Sondheim/Röhm, Germany). For differential BAL cell counts, cytospin preparations were made (15×g, five minutes, 4° C., Kendro Heraues Instruments, Asheville, N.C.). Next, cells were fixed and stained with Diff-Quick (Dade A. G., Düdingen, Switzerland). Per cytospin, 200 cells were counted and differentiated into mononuclear cells, eosinophils, and neutrophils by standard morphology and staining characteristics.
Statistical analysis. All data are expressed as mean±standard error of mean (SEM). The airway dose-response curves to methacholine were statistically analyzed by a general linear model of repeated measurements followed by post-hoc comparison between groups. Data were log transformed before analysis to equalize variances in all groups. All other data were analyzed using a Student's t test (2-tailed, homosedastic). Results were considered statistically significant at the p<0.05 level.

In experiment [2] the test system is OVA-sensitized BALB/c mice. The experiment can be described thus: Airway responsiveness to methacholine in vivo (whole-body plethysmography, Penh) in mouse model of allergic asthma. On the set-up: species or system mouse (BALB/c). The procedure:
as §1
as §2, with “One group was treated with sham-immunotherapy and combined with co-injection of 0.1 μg 1α,25(OH)2 VitD3. Ten days after treatment, mice were exposed to three OVA inhalation challenges (10 mg/ml in saline) for 20 minutes every third day.” left out
Measurement of airway responsiveness in vivo. Airway responsiveness to methacholine was measured after treatment but before OVA challenge (pre-measurement) and 24 hours after the last OVA challenge. Airway responsiveness was measured in conscious, unrestrained mice using barometric whole-body plethysmography by recording respiratory pressure curves (Buxco, EMKA Technologies, Paris, France) in response to inhaled methacholine (acetyl-β-methylcholine chloride, Sigma-Aldrich). […] Briefly, mice were placed in a whole-body chamber and basal readings were determined for three minutes. Aerosolized saline, followed by doubling concentrations of methacholine (ranging from 3.13-25 mg/ml in saline), were nebulized for three minutes, and readings were determined for three minutes after each nebulization.
Statistical analysis. All data are expressed as mean±standard error of mean (SEM). The airway dose-response curves to methacholine were statistically analyzed by a general linear model of repeated measurements followed by post-hoc comparison between groups. […]

The subject of experiment [3] is OVA-sensitized BALB/c mice. Briefly: OVA-specific IgE levels in serum (sandwich ELISA) in mouse model of allergic asthma. The class given is in vivo, mouse (BALB/c). The procedure: as §1, §2
Determination of OVA-specific IgE levels in serum. From each mouse, serum was obtained after treatment but before OVA challenge (pre-measurement) by a small incision in the tail vein. After measurement of airway responsiveness in vivo, mice were sacrificed by i.p. injection of 1 ml 10% urethane in saline and were bled by cardiac puncture. […] Serum levels of OVA-specific IgE were measured by sandwich ELISA as described previously (Deurloo et al., 2001).
Statistical analysis. All data are expressed as mean±standard error of mean (SEM). The airway dose-response curves to methacholine were statistically analyzed by a general linear model of repeated measurements followed by post-hoc comparison between groups. […] All other data were analyzed using a Student's t test (2-tailed, homosedastic). […]

The mark [4] stands for this setting: co-injection of 0.01 μg with OVA-immunotherapy (1 mg OVA), compared to OVA-immunotherapy alone.

As for `C=C1/C(=C\C=C2/CCC[C@]3(C)[C@@H]([C@H](C)CCCC(C)(C)O)CC[C@@H]23)C[C@@H](O)C[C@@H]1O` [1α,25(OH)2 VitD3, 1α,25-dihydroxyvitamin D3], the “Number of BALF eosinophils after OVA inhalation challenge” value was “significantly increased the reduction of BALF eosinophil numbers” in experiment [1] (setting [4]); “did not significantly affect BAL eosinophil number” in experiment [1] (first series, co-injection of 0.1 μg with sham-immunotherapy); “did not significantly affect BAL eosinophil number” in experiment [1] (second series, co-injection of 0.01 μg with sham-immunotherapy); “significantly increased the reduction of BALF eosinophil numbers” in experiment [1] (second series, co-injection of 0.01 μg with sub-optimal OVA-immunotherapy (100 μg OVA), compared to OVA-immunotherapy alone). The “AHR to methacholine after OVA inhalation challenge” value in experiment [2] (co-injection of 0.1 μg with sham-immunotherapy (saline)) is “did not affect AHR”; in experiment [2] (co-injection s.c. of 0.1, 0.03 or 0.01 μg (all doses used) with OVA-immunotherapy (1 mg OVA), compared to OVA-IT alone, P<0.05) it was “significantly potentiated the reduction of AHR to methacholine”. Besides, the “Serum levels of OVA-specific IgE after OVA inhalation challenge” value in experiment [3] (setting [4]) was “significantly increased the reduction of serum IgE levels”; in experiment [3] (co-injection of 0.1 μg with sham-immunotherapy, compared to sham-immunotherapy alone), “did not affect serum IgE levels”.
As for “OVA-immunotherapy: three s.c. injections of 1 mg (or sub-optimal 100 μg) ovalbumin (OVA, grade V) in pyrogen-free saline on alternate days”, the “Number of BALF eosinophils after OVA inhalation challenge” value is recorded as “significantly reduced” in experiment [1] (OVA-immunotherapy alone (1 mg OVA), compared to sham-treated mice) and “significantly reduced” in experiment [1] (second series, sub-optimal OVA-immunotherapy alone (100 μg OVA), compared to sham-treated mice). Besides, the “AHR to methacholine after OVA inhalation challenge” value in experiment [2] (OVA-immunotherapy alone (3 s.c. injections of 1 mg OVA), compared to sham-treated mice, P<0.05) was “partially reduced”. In addition, in experiment [3] (OVA-immunotherapy alone (1 mg OVA), compared to sham-treated OVA-challenged mice), the “Serum levels of OVA-specific IgE after OVA inhalation challenge” value is recorded as “significantly reduced”.
